Test results taken from patent US20070219254A1, “Therapeutic Compounds: Pyridine N-Oxide Scaffold” (priority 2004, published 2007).
Where two headings read alike, the source gives them in different places.

How the values were obtained:
[1] = target: T1, Human CB1 receptor (Homo sapiens, UniProt P21554); assay: hCB1 receptor binding (3H-CP55,940 displacement)
T1 construct: purchased Receptor Biology
Method: Human CB1 receptor from Receptor Biology (hCB1) or human CB2 receptor from BioSignal (hCB2) membranes are thawed at 37° C., passed 3 times through a 25-gauge blunt-end needle, diluted in the cannabinoid binding buffer (50 mM Tris, 2.5 mM EDTA, 5 mM MgCl2, and 0.5 mg/mL BSA fatty acid free, pH 7.4) and aliquots containing the appropriate amount of protein are distributed in 96-well plates. The IC50 of the compounds of the invention at hCB1 and hCB2 are evaluated from 10-point dose-response curves done with ^3H-CP55,940 at 20000 to 25000 dpm per well (0.17-0.21 nM) in a final volume of 300 μl. The total and non-specific binding are determined in the absence and presence of 0.2 μM of HU210 respectively. The plates are vortexed and incubated for 60 minutes at room temperature, filtered through Unifilters GF/B (presoaked in 0.1% polyethyleneimine) with the Tomtec or Packard harvester using 3 mL of wash buffer (50 mM Tris, 5 mM MgCl2, 0.5 mg BSA pH 7.0). The filters are dried for 1 hour at 55° C. The radioactivity (cpm) is counted in a TopCount (Packard) after adding 65 μl/well of MS-20 scintillation liquid.
Based on the above assays, the dissociation constant (Ki) for a particular compound of the invention towards a particular receptor is determined using the following equation: […]
Wherein IC50 is the concentration of the compound of the invention at which 50% displacement has been observed;
[rad] is a standard or reference radioactive ligand concentration at that moment; and
Kd is the dissociation constant of the radioactive ligand towards the particular receptor.

[2] = target: T1, Human CB1 receptor; assay: hCB1 GTPγS binding; type: biochemical; conditions: for Emax: maximal stimulation defined by 10 μM Win 55,212-2
Method: Human CB1 receptor from Receptor Biology (hCB1) or human CB2 receptor membranes (BioSignal) are thawed at 37° C., passed 3 times through a 25-gauge blunt-end needle and diluted in the GTPγS binding buffer (50 mM Hepes, 20 mM NaOH, 100 mM NaCl, 1 mM EDTA, 5 mM MgCl2, pH 7.4, 0.1% BSA). The EC50 and Emax of the compounds of the invention are evaluated from 10-point dose-response curves done in 300 μl with the appropriate amount of membrane protein and 100000-130000 dpm of GTPg^35S per well (0.11-0.14 nM). The basal and maximal stimulated binding is determined in absence and presence of 1 μM (hCB2) or 10 μM (hCB1) Win 55,212-2 respectively. The membranes are pre-incubated for 5 minutes with 56.25 μM (hCB2) or 112.5 μM (hCB1) GDP prior to distribution in plates (15 μM (hCB2) or 30 μM (hCB1) GDP final). The plates are vortexed and incubated for 60 minutes at room temperature, filtered on Unifilters GF/B (presoaked in water) with the Tomtec or Packard harvester using 3 ml of wash buffer (50 mM Tris, 5 mM MgCl2, 50 mM NaCl, pH 7.0). The filters are dried for 1 hour at 55° C. The radioactivity (cpm) is counted in a TopCount (Packard) is after adding 65 μl/well of MS-20 scintillation liquid. Antagonist reversal studies are done in the same way except that (a) an agonist dose-response curve is done in the presence of a constant concentration of antagonist, or (b) an antagonist dose-response curve is done in the presence of a constant concentration of agonist.

[3] = hCB1 membranes, 3H-CP55,940, Ki=IC50/(1+[rad]/Kd), read-out: Ki (hCB1)
[4] = hCB1 membranes, GTPγ35S, read-out: EC50 (hCB1)

T1 sequence (P21554 whole entry): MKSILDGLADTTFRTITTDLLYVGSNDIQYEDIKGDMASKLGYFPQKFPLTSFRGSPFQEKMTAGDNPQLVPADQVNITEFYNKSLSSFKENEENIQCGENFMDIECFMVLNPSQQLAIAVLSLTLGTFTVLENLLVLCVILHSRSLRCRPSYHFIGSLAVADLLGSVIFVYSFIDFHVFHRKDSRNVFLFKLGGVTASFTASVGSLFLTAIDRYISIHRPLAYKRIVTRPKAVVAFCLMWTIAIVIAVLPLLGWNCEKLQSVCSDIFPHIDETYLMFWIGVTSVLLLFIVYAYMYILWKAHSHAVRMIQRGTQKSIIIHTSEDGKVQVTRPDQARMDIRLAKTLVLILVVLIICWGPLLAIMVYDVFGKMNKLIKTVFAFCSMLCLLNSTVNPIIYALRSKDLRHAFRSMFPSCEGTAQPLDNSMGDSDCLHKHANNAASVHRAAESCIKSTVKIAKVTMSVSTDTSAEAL

| Structure (SMILES) | Ki [1, 3] | EC50 [2, 4] | Emax ([2]; hCB1 membranes) | Ki [1] | EC50 [2] |
| --- | --- | --- | --- | --- | --- |
| Cc1ccc(C(=O)Nc2ccc[n+]([O-])c2C(=O)NCC2CCC2)c2ccccc12 [Example 2, N-(Cyclobutylmethyl)-3-[[(4-methyl-1-naphthalenyl)carbonyl]amino]-1-oxide-2-pyridinecarboxamide] | 18 nM | 167 nM | 106% |  |  |
| Cc1ccc(C(=O)Nc2ccc[n+]([O-])c2C(=O)NCC2CCCCC2)c2ccccc12 [Example 8, N-(Cyclohexylmethyl)-3-[(4-methyl-1-naphthalenylcarbonyl)amino]-1-oxide-2-pyridinecarboxamide] | 42 nM | 191 nM | 122% |  |  |
| O=C(Nc1ccc[n+]([O-])c1C(=O)NCC1CCCCC1)c1cccc2ccccc12 [Example 7, N-(Cyclohexylmethyl)-3-[(1-naphthalenylcarbonyl)amino]-1-oxide-2-pyridinecarboxamide] |  |  | 128% | 47 nM | 506 nM |
